# Laboratory results from patent publication US20230122911A1, “FORMULATIONS OF ENZALUTAMIDE” (Astellas Pharma Inc., priority 2012, published 2023).
# Key:
# [1] = physchem; details: USP phosphate buffer (pH 6.8), pH 6.8, aqueous buffer, kinetic from dmso stock
# [2] = Solubility test with polymers (Example 24); details: USP phosphate buffer (pH 6.8), pH 6.8, aqueous buffer, kinetic from dmso stock, after 5 min
compound,measurement,setting,value
"CNC(=O)c1ccc(N2C(=S)N(c3ccc(C#N)c(C(F)(F)F)c3)C(=O)C2(C)C)cc1F [enzalutamide, 4-{3-[4-cyano-3-(trifluoromethyl)phenyl]-5,5-dimethyl-4-oxo-2-sulfanylideneimidazolidin-1-yl}-2-fluoro-N-methylbenzamide]",solubility at 5 min,[1],31.1 µg/mL
same,solubility at 5 min,[2]; with copolyvidone,47.4 µg/mL
same,solubility at 5 min,[2]; with hydroxypropylmethylcellulose 2910 (TC-5E),42.7 µg/mL
same,solubility at 5 min,[2]; with hydroxypropylmethylcellulose 2910 (TC-5R),39.2 µg/mL
same,solubility at 5 min,[2]; with polyvinylpyrrolidone,40.1 µg/mL
same,solubility at 5 min,[2]; without polymer,29 µg/mL
